From PubChem BioAssay (NCI)
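Interpolation was linear, between the two tested concentrations surrounding the appropriate level; five concentrations were tested over 48 hours in 96-well plates. At the TGI there is no net growth.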

What was measured:
Assay in all cases: growth of human tumour cells (NCI), 48 h
UO-31 renal = tested on: UO-31 renal
RPMI-8226 leukemia = tested on: RPMI-8226 leukemia
COLO 205 colon = tested on: COLO 205 colon
ACHN renal = tested on: ACHN renal
SW-620 colon = tested on: SW-620 colon
NCI-H23 lung = tested on: NCI-H23 lung
OVCAR-8 ovarian = tested on: OVCAR-8 ovarian
NCI/ADR-RES ovarian = tested on: NCI/ADR-RES ovarian
SK-MEL-28 melanoma = tested on: SK-MEL-28 melanoma
U251 CNS = tested on: U251 CNS
LOX IMVI melanoma = tested on: LOX IMVI melanoma
HCT-116 colon = tested on: HCT-116 colon
NCI-H460 lung = tested on: NCI-H460 lung
MDA-MB-231 breast = tested on: MDA-MB-231 breast
UACC-62 melanoma = tested on: UACC-62 melanoma
HOP-92 NSCLC = tested on: HOP-92 NSCLC
A549 NSCLC = tested on: A549 NSCLC
OVCAR-4 ovarian = tested on: OVCAR-4 ovarian
SF-268 CNS = tested on: SF-268 CNS
MCF7 breast = tested on: MCF7 breast
IGROV1 ovarian = tested on: IGROV1 ovarian
T-47D breast = tested on: T-47D breast
HL-60(TB) leukemia = tested on: HL-60(TB) leukemia
CAKI-1 renal = tested on: CAKI-1 renal
SK-OV-3 ovarian = tested on: SK-OV-3 ovarian
OVCAR-3 ovarian = tested on: OVCAR-3 ovarian
786-0 renal = tested on: 786-0 renal
NCI-H226 lung = tested on: NCI-H226 lung
SF-295 CNS = tested on: SF-295 CNS
PC-3 prostate = tested on: PC-3 prostate
SNB-19 CNS = tested on: SNB-19 CNS
HCC-2998 colon = tested on: HCC-2998 colon
MDA-N = tested on: MDA-N
K-562 leukemia = tested on: K-562 leukemia
MDA-MB-435 = tested on: MDA-MB-435
RXF 393 renal = tested on: RXF 393 renal
SR leukemia = tested on: SR leukemia
KM12 colon = tested on: KM12 colon
HCT-15 colon = tested on: HCT-15 colon
M14 melanoma = tested on: M14 melanoma
HS 578T breast = tested on: HS 578T breast
A498 renal = tested on: A498 renal
TK-10 renal = tested on: TK-10 renal
EKVX NSCLC = tested on: EKVX NSCLC
HOP-62 NSCLC = tested on: HOP-62 NSCLC
SF-539 CNS = tested on: SF-539 CNS
OVCAR-5 ovarian = tested on: OVCAR-5 ovarian
UACC-257 melanoma = tested on: UACC-257 melanoma
SK-MEL-2 melanoma = tested on: SK-MEL-2 melanoma
MALME-3M melanoma = tested on: MALME-3M melanoma
HT29 colon = tested on: HT29 colon
DU-145 prostate = tested on: DU-145 prostate
BT-549 breast = tested on: BT-549 breast
NCI-H522 lung = tested on: NCI-H522 lung
SN12C renal = tested on: SN12C renal
SNB-75 CNS = tested on: SNB-75 CNS
SK-MEL-5 melanoma = tested on: SK-MEL-5 melanoma
CCRF-CEM leukemia = tested on: CCRF-CEM leukemia

With `COC(=O)[C@@H]1CS(=O)(=O)C(C(C)C)N1C(C)=O` (some centres undefined) the TGI (UO-31 renal) was over 100 µM, the TGI (RPMI-8226 leukemia) was over 100 µM and the TGI (COLO 205 colon) was over 100 µM. It also gave a TGI (ACHN renal) of over 100 µM, a TGI (SW-620 colon) of over 100 µM and a TGI (NCI-H23 lung) of over 100 µM. The TGI (OVCAR-8 ovarian) was over 100 µM, the TGI (NCI/ADR-RES ovarian) was over 100 µM and the TGI (SK-MEL-28 melanoma) was over 100 µM. For the same compound, the TGI (U251 CNS) was over 100 µM, the TGI (LOX IMVI melanoma) was over 100 µM and the TGI (HCT-116 colon) was over 100 µM. The TGI (NCI-H460 lung) was over 100 µM, the TGI (MDA-MB-231 breast) was over 100 µM and the TGI (UACC-62 melanoma) was over 100 µM. It also gave a TGI (HOP-92 NSCLC) of over 100 µM, a TGI (A549 NSCLC) of over 100 µM and a TGI (OVCAR-4 ovarian) of over 100 µM. It also gave a TGI (SF-268 CNS) of over 100 µM, a TGI (MCF7 breast) of over 100 µM and a TGI (IGROV1 ovarian) of over 100 µM. It also gave a TGI (T-47D breast) of over 100 µM, a TGI (HL-60(TB) leukemia) of 32.1 µM and a TGI (CAKI-1 renal) of over 100 µM. For the same compound, the TGI (SK-OV-3 ovarian) was over 100 µM, the TGI (OVCAR-3 ovarian) was over 100 µM and the TGI (786-0 renal) was over 100 µM. For the same compound, the TGI (NCI-H226 lung) was over 100 µM, the TGI (SF-295 CNS) was over 100 µM and the TGI (PC-3 prostate) was over 100 µM. The TGI (SNB-19 CNS) was over 100 µM, the TGI (HCC-2998 colon) was over 100 µM and the TGI (MDA-N) was over 100 µM. The TGI (K-562 leukemia) was over 100 µM, the TGI (MDA-MB-435) was over 100 µM and the TGI (RXF 393 renal) was over 100 µM. For the same compound, the TGI (SR leukemia) was over 100 µM, the TGI (KM12 colon) was over 100 µM and the TGI (HCT-15 colon) was over 100 µM. It also gave a TGI (M14 melanoma) of over 100 µM, a TGI (HS 578T breast) of over 100 µM and a TGI (A498 renal) of over 100 µM. It also gave a TGI (TK-10 renal) of over 100 µM, a TGI (EKVX NSCLC) of over 100 µM and a TGI (HOP-62 NSCLC) of over 100 µM. The TGI (SF-539 CNS) was over 100 µM, the TGI (OVCAR-5 ovarian) was over 100 µM and the TGI (UACC-257 melanoma) was over 100 µM. It also gave a TGI (SK-MEL-2 melanoma) of over 100 µM, a TGI (MALME-3M melanoma) of over 100 µM and a TGI (HT29 colon) of over 100 µM. The TGI (DU-145 prostate) was over 100 µM, the TGI (BT-549 breast) was over 100 µM and the TGI (NCI-H522 lung) was over 100 µM. The TGI (SN12C renal) was over 100 µM, the TGI (SNB-75 CNS) was over 100 µM and the TGI (SK-MEL-5 melanoma) was over 100 µM.
For `Nc1cc2c(c3ccccc13)C(CCl)CN2C(=O)c1cc2cc(NC(=O)Nc3ccc4[nH]c(C(=O)N5CC(CCl)c6c5cc(N)c5ccccc65)cc4c3)ccc2[nH]1` (centres undefined), the TGI (UO-31 renal) was 1.4 µM, the TGI (RPMI-8226 leukemia) was over 23.3 µM and the TGI (COLO 205 colon) was 2.07 µM. It also gave a TGI (SW-620 colon) of 2.07 µM, a TGI (NCI-H23 lung) of 1.02 µM and a TGI (NCI/ADR-RES ovarian) of 39.4 µM. It also gave a TGI (SK-MEL-28 melanoma) of 2.52 µM, a TGI (LOX IMVI melanoma) of 12 µM and a TGI (HCT-116 colon) of 1.13 µM. For the same compound, the TGI (NCI-H460 lung) was over 100 µM, the TGI (MDA-MB-231 breast) was 2.16 µM and the TGI (UACC-62 melanoma) was 1.05 µM. For the same compound, the TGI (HOP-92 NSCLC) was over 100 µM, the TGI (OVCAR-4 ovarian) was over 100 µM and the TGI (SF-268 CNS) was 8.15 µM. It also gave a TGI (MCF7 breast) of 1.4 µM, a TGI (IGROV1 ovarian) of 1.4 µM and a TGI (T-47D breast) of 1.34 µM. The TGI (CAKI-1 renal) was 0.444 µM, the TGI (SK-OV-3 ovarian) was over 24.3 µM and the TGI (OVCAR-3 ovarian) was 2.41 µM. It also gave a TGI (786-0 renal) of 0.258 µM, a TGI (NCI-H226 lung) of 1.81 µM and a TGI (SF-295 CNS) of 2.99 µM. For the same compound, the TGI (PC-3 prostate) was 12.8 µM, the TGI (HCC-2998 colon) was 1.19 µM and the TGI (MDA-N) was 2.49 µM. For the same compound, the TGI (K-562 leukemia) was over 100 µM, the TGI (MDA-MB-435) was 4.33 µM and the TGI (RXF 393 renal) was 0.248 µM. It also gave a TGI (SR leukemia) of 1.13 µM, a TGI (KM12 colon) of 3.22 µM and a TGI (HCT-15 colon) of over 32.3 µM. The TGI (M14 melanoma) was 0.644 µM, the TGI (HS 578T breast) was 12.3 µM and the TGI (A498 renal) was 0.832 µM. For the same compound, the TGI (TK-10 renal) was 3.75 µM, the TGI (EKVX NSCLC) was 6.38 µM and the TGI (HOP-62 NSCLC) was 1.55 µM. The TGI (SF-539 CNS) was 1.11 µM, the TGI (OVCAR-5 ovarian) was 4.22 µM and the TGI (UACC-257 melanoma) was 3.24 µM. For the same compound, the TGI (SK-MEL-2 melanoma) was 2.17 µM, the TGI (MALME-3M melanoma) was 2.03 µM and the TGI (HT29 colon) was 2.01 µM. For the same compound, the TGI (DU-145 prostate) was 0.704 µM, the TGI (BT-549 breast) was 4.53 µM and the TGI (NCI-H522 lung) was 1.42 µM. For the same compound, the TGI (CCRF-CEM leukemia) was 2.98 µM, the TGI (SN12C renal) was over 100 µM and the TGI (SNB-75 CNS) was 0.73 µM. For the same compound, the TGI (SK-MEL-5 melanoma) was 0.341 µM.
